Reference: patent US20260374829A1, “METHODS AND PLATFORM RELATED TO FLUORESCENT PROTEIN BIOSENSORS” (BOARD OF REGENTS, THE UNIVERSITY OF TEXAS SYSTEM, priority 2023, published 2026)

Experiments:
[1] = test system: free ADPR sensor (cpVenus integrated between amino acids 118 and 119 of Shewanella oneidensis NrtR, Uniprot Q8EFJ3; K435A, S436D, D122N), SEQ ID NO: 1; test: Fluorescence response of purified free ADPR sensor to ligands in vitro; assay type: binding; conditions: role: ligand; for sensor fluorescence response (in words): FIG. 5A; for sensor responsivity (in words): structurally related molecules, FIG. 5
Text: (§1) The sensor is based on a circularly-permutated single fluorescent protein design (Baird et al, 1999 PNAS and reviewed in Nasu et al, 2021 Nat Chem Biol). For the fluorescence readout, the GFP-derived fluorescent protein, Venus, was used. Venus was circularly permutated and reforms to its fluorescent beta barrel fold by introducing a cut between amino acids 144 and 145 and connecting its original N- and C-termini with a 5 amino acid GGSGG linker sequence (circularly permutated Venus now referred to as cpVenus or cpV). Circular permutation permits attachment of an analyte binding domain in close proximity to the chromophore of Venus. The analyte binding domain confers selectivity of ligand binding to the sensor. The Nudix-like bacterial transcription factor NrtR from Shewanella oneidensis was used that is an ADPR-dependent transcriptional repressor (Rodionov et al, 2008 Nucleic Acids Res; Gao et al, 2019 eLIFE). The cpV protein was integrated between amino acids 118 and 119 in the sequence of NrtR (Uniprot Q8EFJ3).
Based on these analyses, cpV integrated into site 118/119 in NrtR was chosen for further analyses. This site is adjacent to the hinge region of the ligand-binding site, and it is within an alpha-helix that undergoes a disruptive loss of secondary structure when free ADPR binds (FIG. 1). The model is that this structural change is transduced to the nearby chromophore of cpV to cause a change in fluorescence intensity. This may occur through disruption of the chromophore or shifting the pKa of the chromophore.
Due to the compact nature of NrtR, attempts to use truncation to eliminate the DNA-binding domain appeared to destabilize the whole protein and thus could not be used. Instead, three point mutations were identified and used to ablate the outward facing overall positive change on this domain. These point mutations are distinct from the ligand-binding domain. The specific sites and their mutations (K435A and S436D) were identified through empirical screening and it was determined that in combination they alleviated aggregation of the sensor when it was ectopically expressed (FIG. 2).
The mutation D122N was also incorporated to reduce the number of polar and charged side-chains in proximity to the sensor's chromophore. The rationale was that charged residues could shift the local pKa of the chromophore promoting in its protonation. Introduction of D122N improved the brightness of the sensor and stabilized its pH-sensitivity between pH 7.4-8.0 (FIG. 3)
The sequence of the free ADPR sensor is shown in SEQ ID NO: 1.
The purified sensor (FIG. 4) decreased in fluorescence intensity with addition of free ADPR. At high concentrations, it saturated with ~80% diminishment of sensor brightness that represented an […] dose-dependent response (FIG. 4B, red). […] It was determined that the sensor responds to free ADPR with a Kd~2 μM±1 μM and is thus poised to detect intracellular free ADPR concentrations (Heiner, et al, 2006 Biochem J; Gasser and Guse, 2005 J Chromatogr B Analyt Technol Biomed Life Sci; Gasser et al, 2006 J Biol Chem).

TRPM2 = TRPM2 response in live cells to H2O2 treatment, Ca2+ influx reported by GCaMP7s; assay type: cell-based; conditions: role: activator (via increased free cytosolic ADPR), GCaMP7s readout, FIG. 7B
Procedure: (§2) Values are mean (F/F0)±SD, analyzed by confocal microscopy.
(§3) With confocal imaging, it was determined that the free ADPR sensor responded in live cells to an accumulation of free ADPR upon oxidation stress by acute H2O2 treatment (FIG. 7). In this experimental paradigm, H2O2 induces PARP1/2 to generate poly-ADPR chains, and due to the activities of glycohydrolases, this in turn leads to increased levels of free ADPR monomers. […] The generation of free ADPR was confirmed by a GCaMP7s sensor that monitored the resulting Ca^2+ influx from activation of co-expressed TRPM2 (FIG. 7B).

free ADPR sensor = test: Free ADPR sensor response in live cells to H2O2 treatment (confocal microscopy); assay type: cell-based; conditions: role: activator (oxidation stress), acute H2O2 treatment, FIG. 7
Procedure: as §2, §3

[2] = test system: free ADPR sensor no binding control R98E (cpVenus in Shewanella oneidensis NrtR, Uniprot Q8EFJ3; binding pocket mutant R98E), SEQ ID NO: 2; test: Fluorescence response of non-binding control sensor to ligands in vitro; conditions: role: ligand, FIG. 4B
Text: as §1
The purified sensor (FIG. 4) decreased in fluorescence intensity with addition of free ADPR. At high concentrations, it saturated with ~80% diminishment of sensor brightness that represented an ~4-fold dose-dependent response (FIG. 4B, red). […]

PARP1/2 = test: Free ADPR sensor response in live cells after acute H2O2 treatment (confocal imaging), with PARP1/2 inhibitor; assay type: cell-based; conditions: role: inhibitor (PARP1/2), FIG. 7
Procedure: as §2, §3

SMILES: Nc1ncnc2c1ncn2[C@@H]1O[C@@H]2COP(=O)(O)OP(=O)(O)OC[C@H]3OC(O[C@@H]1[C@@H]2O)[C@H](O)[C@@H]3O [2′-cyclic ADPR]
- sensor fluorescence response (in words) [1]: does not respond

SMILES: Nc1ncnc2c1ncn2[C@H]1C[C@H](O)[C@@H](COP(=O)(O)OP(=O)(O)OC[C@H]2OC(O)[C@H](O)[C@@H]2O)O1 (stereo partly drawn) [2′-deoxy ADPR]
- sensor fluorescence response (in words) [1]: responds

SMILES: Nc1ncnc2c1ncn2[C@@H]1O[C@@H]2COP(=O)(O)OP(=O)(O)OC[C@H]3OC(O[C@H]2[C@H]1O)[C@H](O)[C@@H]3O [3′-cyclic ADPR]
- sensor fluorescence response (in words) [1]: does not respond

SMILES: Nc1ncnc2c1ncn2[C@@H]1O[C@H](COP(=O)(O)OP(=O)(O)O)[C@@H](O)[C@H]1O [ADP, adenosine diphosphate]
- sensor fluorescence response (in words) [1]: does not respond
- sensor responsivity (in words) [1]: minimal responsivity

SMILES: Nc1ncnc2c1ncn2[C@@H]1O[C@H](COP(=O)(O)O)[C@@H](O)[C@H]1O [AMP, adenosine monophosphate]
- sensor fluorescence response (in words) [1]: does not respond

SMILES: Nc1ncnc2c1ncn2[C@@H]1O[C@H](COP(=O)(O)OP(=O)(O)OP(=O)(O)O)[C@@H](O)[C@H]1O [ATP, adenosine triphosphate]
- sensor fluorescence response (in words) [1]: does not respond
- sensor responsivity (in words) [1]: minimal responsivity

SMILES: OO [H2O2]
- TRPM2 response, influx of intracellular Ca2+ (in words) (TRPM2): responds with an influx of intracellular Ca^2+
- free ADPR sensor response to accumulation of free ADPR (in words) (free ADPR sensor): responded

SMILES: Nc1ncnc2c1ncn2[C@@H]1O[C@H](COP(=O)(O)OP(=O)(O)OC[C@H]2O[C@@H]([n+]3cccc(C(=O)O)c3)[C@H](O)[C@@H]2O)[C@@H](O)[C@H]1O [NAAD^+]
- sensor fluorescence response (in words) [1]: does not respond

SMILES: NC(=O)C1=CN([C@@H]2O[C@H](COP(=O)(O)OP(=O)(O)OC[C@H]3O[C@@H](n4cnc5c(N)ncnc54)[C@H](O)[C@@H]3O)[C@@H](O)[C@H]2O)C=CC1 [NADH, nicotinamide adenine dinucleotide]
- sensor fluorescence response (in words) [1]: does not respond

SMILES: NC(=O)c1ccc[n+]([C@@H]2O[C@H](COP(=O)(O)OP(=O)(O)OC[C@H]3O[C@@H](n4cnc5c(N)ncnc54)[C@H](O)[C@@H]3O)[C@@H](O)[C@H]2O)c1 [NAD^+, oxidized nicotinamide adenine dinucleotide]
- sensor fluorescence response (in words) [1]: does not respond

SMILES: Nc1ncnc2c1ncn2[C@@H]1O[C@H](COP(=O)(O)OP(=O)(O)OC[C@H]2O[C@@H]([n+]3cccc(C(=O)O)c3)[C@H](O)[C@@H]2O)[C@@H](O)[C@H]1OP(=O)(O)O [NaADP^+]
- sensor fluorescence response (in words) [1]: does not respond

SMILES: CC(=O)O[C@H]1C(O)O[C@H](COP(=O)(O)OP(=O)(O)OC[C@H]2O[C@@H](n3cnc4c(N)ncnc43)[C@H](O)[C@@H]2O)[C@H]1O (stereo partly drawn) [O-Acetyl ADPR]
- sensor fluorescence response (in words) [1]: responds

SMILES: O=C(CO)[C@H](O)[C@H](O)COP(=O)(O)O [Ribulose-5-Phosphate]
- sensor fluorescence response (in words) [1]: does not respond

SMILES: N=c1c2ncn3c2ncn1[C@@H]1O[C@H](COP(=O)(O)OP(=O)(O)OC[C@H]2O[C@@H]3[C@H](O)[C@@H]2O)[C@@H](O)[C@H]1O [cyclic ADPR]
- sensor fluorescence response (in words) [1]: does not respond

SMILES: Nc1ncnc2c1ncn2[C@@H]1O[C@H](COP(=O)(O)OP(=O)(O)OC[C@H]2OC(O)[C@H](O)[C@@H]2O)[C@@H](O)[C@H]1O (stereo partly drawn) [free ADPR, Adenosine 5′Di-Phosphate Ribose]
- fluorescence intensity with increasing free ADPR concentrations (in words) ([1]; FIG. 4B, mean of n=3): decreases
- diminishment of sensor brightness at saturation ([1]; at high concentrations (saturated)): ~ 80%
- dose-dependent response (fold) ([1]; fluorescence intensity, at saturation): ~ 4 fold
- sensor fluorescence response (in words) [1]: responds
- response of binding mutant to free ADPR (in words) [2]: did not respond

SMILES: O=C(c1cc(Cc2n[nH]c(=O)c3ccccc23)ccc1F)N1CCN(C(=O)C2CC2)CC1 [olaparib]
- effect on H2O2-induced free ADPR sensor responses (in words) (PARP1/2): eliminated sensor responses

SMILES: Nc1ncnc2c1ncn2[C@@H]1O[C@H](COP(=O)(O)OP(=O)(O)OC[C@H]2OC(O)[C@H](O)[C@@H]2O)[C@@H](O)[C@H]1OP(=O)(O)O (stereo partly drawn) [phospho ADPR]
- sensor fluorescence response (in words) [1]: responds
